From PMC5012888, “Structure-based identification and characterisation of structurally novel human P2X7 receptor antagonists” (Biochemical Pharmacology, 2016)

Columns and labels:
[1] = target: T1, rP2X7R (Rattus norvegicus, UniProt Q64663); assay: BzATP-induced Ca2+ responses in HEK293 cells expressing rP2X7R (FlexStation, Fura-2); type: cell-based; conditions: 300 μM BzATP
T1 construct: expressed in transfected cells
T1 sequence (Q64663 1-595): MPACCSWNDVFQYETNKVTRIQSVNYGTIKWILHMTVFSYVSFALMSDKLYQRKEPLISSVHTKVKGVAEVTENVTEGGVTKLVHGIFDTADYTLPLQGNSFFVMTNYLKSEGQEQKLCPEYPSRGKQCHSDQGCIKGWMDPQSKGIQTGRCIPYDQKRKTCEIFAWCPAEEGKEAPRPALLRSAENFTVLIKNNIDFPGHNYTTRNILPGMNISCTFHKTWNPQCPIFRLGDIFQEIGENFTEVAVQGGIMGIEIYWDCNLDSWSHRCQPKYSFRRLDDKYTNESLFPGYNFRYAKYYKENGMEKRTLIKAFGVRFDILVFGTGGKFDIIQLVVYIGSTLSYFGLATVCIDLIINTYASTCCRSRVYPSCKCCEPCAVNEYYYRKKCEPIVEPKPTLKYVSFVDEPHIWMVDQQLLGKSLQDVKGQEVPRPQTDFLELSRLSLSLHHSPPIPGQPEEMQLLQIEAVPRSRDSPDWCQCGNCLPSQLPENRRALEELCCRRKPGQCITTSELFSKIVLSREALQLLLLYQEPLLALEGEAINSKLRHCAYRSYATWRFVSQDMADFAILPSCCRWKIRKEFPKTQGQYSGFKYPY
Text: (§1) Human embryonic kidney (HEK) 293 cells stably expressing C-terminally EE-tagged human or rat P2X7R [42], [34], human P2X4R [15] and rat P2X3R [28] were generated in previous studies. A stable HEK293 cell line expressing C-terminally His-tagged human P2X7R was generated in this study and there was no difference in the experimental results using EE-tagged and His-tagged human P2X7R. These cells were maintained in Dulbecco’s Modified Eagle Medium (Life Technologies) supplemented with 10% foetal bovine serum and […] G418 in a tissue culture incubator at 37°C and 5% CO2 under humidified conditions. Cells were cultured in T25 flasks and split (every 3–4 days) once confluent.
(§2) FlexStation II and III (Molecular Devices) were used to measure intracellular Ca^2+ concentrations ([Ca^2+]i). Human or rat P2X7R-expressing HEK293 cells were plated in poly-D-lysine-coated 96-well plates (Molecular Devices) with 50,000 cells per well 24 h prior to use. […] Cells were excited at 340 nm and 380 nm alternatively and the emission at 510 nm recorded using a FlexStation. The ratio of fluorescence intensity (F340/F380) was used to indicate the [Ca^2+]i. The basal [Ca^2+]i was recorded for 60 s prior to the exposure to agonist and recording was continued for a further 120 s. […] The maximal changes in F340/F380 (ΔF340/380) were used for quantitative analysis.

[2] = target: T2, hP2X7R (Homo sapiens, UniProt Q99572); conditions: known hP2X7R antagonists; cited from earlier work
T2 construct: expressed in transfected cells
T2 sequence (Q99572 1-595): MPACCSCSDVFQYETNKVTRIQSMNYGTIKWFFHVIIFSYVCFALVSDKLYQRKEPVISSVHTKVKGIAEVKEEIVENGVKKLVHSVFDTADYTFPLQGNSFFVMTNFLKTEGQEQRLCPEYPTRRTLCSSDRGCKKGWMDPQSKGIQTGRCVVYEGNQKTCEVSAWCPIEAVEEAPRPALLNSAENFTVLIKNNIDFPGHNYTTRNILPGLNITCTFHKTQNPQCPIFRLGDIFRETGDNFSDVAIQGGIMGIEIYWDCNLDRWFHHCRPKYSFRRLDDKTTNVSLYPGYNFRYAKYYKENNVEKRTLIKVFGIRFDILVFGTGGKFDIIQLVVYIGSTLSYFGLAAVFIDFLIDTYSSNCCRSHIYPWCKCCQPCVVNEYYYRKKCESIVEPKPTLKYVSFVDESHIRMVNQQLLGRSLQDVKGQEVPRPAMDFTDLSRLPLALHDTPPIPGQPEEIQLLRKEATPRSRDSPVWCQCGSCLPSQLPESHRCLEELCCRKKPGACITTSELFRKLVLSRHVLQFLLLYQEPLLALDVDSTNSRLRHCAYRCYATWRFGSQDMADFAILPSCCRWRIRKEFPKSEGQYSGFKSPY

[3] = target: T2, hP2X7R; assay: BzATP-induced Ca2+ responses in HEK293 cells expressing hP2X7R (FlexStation, Fura-2); type: cell-based; conditions: 300 μM BzATP
Text: as §1
as §2, with “analysis. […]” for “analysis.”

SMILES	inhibition of BzATP-induced Ca^2+ responses (rP2X7R) ([1]; 200 nM AZ11645373 (Fig. 1 legend), compared with BBG)	predicted energy binding score [2] [kcal/mol]	inhibition of BzATP-induced Ca^2+ responses (hP2X7R) ([3]; 200 nM AZ11645373 (Fig. 1 legend)) [%]	inhibition of BzATP-induced Ca^2+ responses (rP2X7R) ([1]; compound at 10 μM)	inhibition at 10 µM ([3]; HEK293, compound at 10 μM, read-out: inhibition of BzATP-induced Ca^2+ responses (hP2X7R)) [%]
O=C1CSC(=O)N1C(CCc1ccncc1)COc1ccc(-c2cccc([N+](=O)[O-])c2)cc1 (stereo not shown) [AZ11645373]	far less effective	-10.8	81.9 ± 5	–	–
CCOc1ccc(Nc2ccc(/C(=C3C=C/C(=[N+](/CC)Cc4cccc(S(=O)(=O)[O-])c4)C=C/3C)c3ccc(N(CC)Cc4cccc(S(=O)(=O)O)c4)cc3C)cc2)cc1 [BBG, brilliant blue G]	–	–	–	strongly inhibited	71.5 ± 5
CN([C@@H](Cc1ccc(OS(=O)(=O)c2cccc3cnccc23)cc1)C(=O)N1CCN(c2ccccc2)CC1)S(=O)(=O)c1cccc2cnccc12 [KN-62]	–	-5.2	–	–	–
C[S+]([O-])c1ccc(-c2nc(-c3ccncc3)c(-c3ccc(F)cc3)[nH]2)cc1 (stereo not shown) [SB203580]	–	-8.75	–	–	–
